We go through 89 compounds from a melting point compilation (Tetko et al.; mined from patent text by program, amines drawn as free bases though some values may be those of a salt).

A word on the melting point: it is the temperature, or range, at which the solid turns liquid.

Compound `O=C(Nc1ccccc1)N1C(=O)C2(CCCCC2)NC12CCCCC2` returned a melting point of 129 to 130 °C.

As for `O=C(O)C1=Cc2cc(Cl)cc(Cl)c2SC1C(F)(F)F` (centres undefined), the melting point lay in the range of 218 to 220 °C.

As to `COc1cc(C(=O)C#CC(=O)N(C)C)cc(OC)c1OC`, the melting point lay in the range of 118 to 119 °C.

As for `CCCCc1cnc(-c2ccc(N=C=O)cc2)nc1`, the melting point was found to be 48 °C.

`N#Cc1ccc2oc3ncccc3c(=O)c2c1`: the melting point stood at 260 °C.

On to `Nc1nc(-c2ccc(-c3ccccc3)cc2)cn1N`, for which the melting point is above 280 °C.

Regarding `Cc1nc(C)c(Cl)c(NCc2nccc(SCCCCBr)c2C)n1`, the melting point lay in the range of 127 to 128 °C.

With `CCOC(=O)COc1ccc(N)cc1`, the melting point lay within 157 to 158 °C.

`CCCCCCCCCCCCCC(=O)OCC1(CO)CCC(=O)O1` (centres undefined) displayed a melting point of 65 to 66 °C.

For `CN1NC(C2CCCC2)=CC1C(=O)O` (centres undefined), the melting point lay within 123 to 128 °C.

The compound `Oc1cc(Cl)ccc1Oc1ccccc1-c1ncon1` gave a melting point of 124 to 125 °C.

In turn, `CCCCCCCNC(=O)N(C)c1cccc(-c2ccc(CC(Nc3ccccc3C(=O)c3ccccc3)C(=O)O)cc2)c1` (centres undefined) showed a melting point of 105 °C.

The compound `CC(C)N(CCNC(=O)c1csc(NC(=O)C2=CC=CC(=Nc3ccc[nH]3)C2)n1)C(C)C` registered a melting point of 160 to 162 °C.

Turning to `COc1nc(Cl)c(-c2c(F)cc(F)cc2F)c(N[C@@H](C)C(F)(F)F)n1`, the melting point fell in the range of 121 to 129 °C.

On to `Cc1ccc(NC(=S)NCc2ccc3c(c2)CN(C2CCC(=O)NC2=O)C3=O)cc1C(F)(F)F` (centres undefined), for which the melting point is 238 to 240 °C.

As to `NS(=O)(=O)c1ccc(-n2nc(C(F)(F)F)cc2-c2ccc(-c3ccco3)cc2)cc1F`, the melting point is 151 °C.

Regarding `COCCOc1ccc(Nc2cc(Nc3ccc(F)c(Cl)c3)ncn2)cc1`, the melting point was in the range of 208 to 210 °C.

`Cc1cccc(-c2nc(C(C)C)[nH]c2-c2ccc(F)c(-c3ccco3)c2)n1`: the melting point was 78 to 90 °C.

For the compound `CCCC(Oc1ccc2c(-c3ccc(Cl)cc3)noc2c1)C(=O)OCC` (centres undefined), the melting point came out at 88 °C.

`CC(C)N1C(=O)C2CC(c3ccc(N)cc3)(C2)C1=O` came in with a melting point of 191 to 201 °C.

Regarding `COC1(c2nc3c(F)cccc3s2)C=CC(=NS(=O)(=O)c2ccc(C)cc2)C=C1` (centres undefined), the melting point was 176 °C.

With `Cc1nc(C#Cc2ccccc2)n(C)c1-c1nc(C2CC2)no1`, the melting point came out at 88 °C.

Turning to `CC(=O)OCC(=O)C1(O)CCC2C3CCC4=CC(=O)C=CC4(C)C3(F)C(O[Si](C)(C)C)CC21C` (centres undefined), the melting point lay within 203 to 204 °C.

With `COc1ccc(OC)c2cc3c(cc12)C1OC3C2=C1CCC(C(C)=O)C2` (centres undefined), the melting point fell in the range of 167 to 168 °C.

In turn, `CCCC1=C(C(=O)OCC)C(c2cccc3c2OCCC3)c2c[nH]nc2N1` (centres undefined) showed a melting point of 159 to 161 °C.

The compound `Cc1ccc2c(c1)C=Cc1cc(C)ccc1C2c1cn(-c2cc(N(C)CC(=O)Nc3nc(CC(=O)O)cs3)ncn2)c(=O)[nH]c1=S` displayed a melting point of 215 °C.

With `COC(=O)Cc1ccccc1OCc1ccc(OCc2nc(-c3ccccc3)sc2C)nc1`, the melting point lay within 119 to 120 °C.

Compound `COC(=O)c1c(C)nc(C)c(C(=O)OC)c1-c1ccccc1[N+](=O)[O-]` showed a melting point of 99 to 101 °C.

For the compound `N#Cc1ccc(N2C(=O)NC3(CCSCC3)C2=O)cc1C(F)(F)F`, the melting point lay within 209 to 210 °C.

With `CC(C)(C)OC(=O)N1CC2CC(CN(CC(O)COc3ccc(C(C)(C)C)cc3)C2)C1` (centres undefined), the melting point is 75 to 77 °C.

`CC(C)(C)NCC(O)COc1ccc(C=O)cc1` (centres undefined): the melting point is 123 to 126 °C.

The compound `O=C(Nc1ccc2c(c1)CCC(CCN1CCCC1)=C2)c1ccc(-c2ccc(Cl)cc2)cc1` showed a melting point of 207 to 209 °C.

`CC(C)CC(NC(=O)C(C)S)C(=O)O` (centres undefined) displayed a melting point of 77 to 84 °C.

Turning to `NS(=O)(=O)c1ccc(N2CCN(Cc3ccc4c(c3)NC(=O)CO4)CC2)cc1`, the melting point was 150 to 153 °C.

As for `c1cncc(-c2ccc(N3CCCN(c4ccc(-c5cccnc5)cn4)CC3)nc2)c1`, the melting point lay in the range of 210 to 211 °C.

The compound `CC(C)NC(=O)c1ccc(-c2ccc3oc(C4CCN(C(=O)OC(C)C)CC4)nc3c2)cc1F` showed a melting point of 147 to 150 °C.

`O=C(O)CCc1ccc(OCCCCc2cc(-c3ccc(C(F)(F)F)cc3)no2)cc1` registered a melting point of 130 to 131 °C.

Compound `Cc1cccc(-c2n[nH]cc2-c2ccc(F)c(-c3ccc(N4CCOCC4)nc3)c2)n1` gave a melting point of 85 to 87 °C.

With `COCCOc1ccc(CC(C)C(=O)O)c(Oc2ncc(C(F)(F)F)cc2Cl)c1` (centres undefined), the melting point fell in the range of 130 to 131 °C.

Compound `Cc1c(Cl)cc(-c2ccc(=O)[nH]n2)cc1Br` had a melting point of 247 to 250 °C.

`Brc1ccccc1SSc1ccccc1Br` showed a melting point of 95 to 97 °C.

`CCCCCCn1cnc2cnc3ccccc3c21` showed a melting point of 75 to 77 °C.

Take `CCOC(=O)c1cn(Cc2ccccc2)nc1N(Cc1ccccc1)C(=O)Nc1ccccc1`: the melting point fell in the range of 116 to 117 °C.

For the compound `COc1ccc(CC(C)N)cc1S(N)(=O)=O` (centres undefined), the melting point is 180 °C.

Take `CC1(C)CCc2cc(S(=O)(=O)C[N+](=O)[O-])ccc2O1`: the melting point was 85 to 86.5 °C.

In turn, `COc1ccc(C[C@@H]2CCc3ncc(C)cc3C2)cc1` displayed a melting point of 46 to 48 °C.

`O=C(O)c1ccccc1-c1ccc2c(C(=O)NCC34CC5CC(CC(C5)C3)C4)c(Cl)ccc2n1`: the melting point was 156 to 158 °C.

For the compound `CCC(CCc1cc(-c2ccccc2)nc2ccccc12)C(=O)N(CC)CC` (centres undefined), the melting point came out at 81 °C.

Turning to `COC(=O)/C=C/n1cnc2ccc(Cl)cc2c1=O`, the melting point lay in the range of 171 to 172 °C.

Turning to `Clc1cccc(Cn2ccc(CN3CCC(c4ccccc4)(c4ccccc4)CC3)n2)c1`, the melting point lay within 136 to 137 °C.

Turning to `O=C(O)C(=O)c1ccc(OCCOc2ccnc3ccccc23)cc1`, the melting point turned out to be 271 °C.

Compound `CCCN(CCC(N)=O)CCC(N)=O` showed a melting point of 101 to 102 °C.

`CC(C)(C)c1cc(-c2ccc(NC(=O)CCCC(=O)O)cc2)cc(C(C)(C)C)c1O` gave a melting point of 218 to 219 °C.

`N#Cc1ccc(Cc2ccc(-c3ccc(C#N)cn3)o2)cc1` came in with a melting point of 204 to 206 °C.

Consider `COC(=O)C(C)=Cc1ccc(O)cc1`, for which the melting point lay within 103 to 104 °C.

In turn, `CC(C)CNC(=O)c1ccc(C2(F)CC2c2ccc(Cl)cc2)cc1` (centres undefined) had a melting point of 140 °C.

Compound `Cc1cc([N+](=O)[O-])ccc1OC1CCN(C(=O)OC(C)(C)C)CC1` showed a melting point of 82 to 83 °C.

As to `CN(C)CCCN1C(=O)Nc2ccccc2C1C1CCCCC1` (centres undefined), the melting point was in the range of 124 to 125 °C.

`COC(=O)C=Cc1ccc(OCC2CN(c3ccccc3)C(=O)O2)cc1` (centres undefined) came in with a melting point of 179 to 181 °C.

`CCOc1ccc(/C=C/c2cc(OC)cc(OC)c2)cc1` gave a melting point of 54 to 55 °C.

As to `O=C1CCC(c2ccc(F)cc2)CC1`, the melting point was in the range of 104 to 106 °C.

Turning to `CS(=O)(=O)NC1CC(N)(C(=O)O)C2C(C(=O)O)C12` (centres undefined), the melting point is above 275 °C.

`CN1C(=O)C(=O)c2cnccc21` came in with a melting point of 140 to 142 °C.

`N#CC(Cc1ccccc1)=NNc1ccc(C(O)(C(F)(F)F)C(F)(F)F)cc1` displayed a melting point of 164 to 167 °C.

The compound `O=C(Nc1ccccn1)C(CC1CCCC1)c1ccc(Cl)c([N+](=O)[O-])c1` (centres undefined) yielded a melting point of 48 to 52 °C.

For the compound `Cc1cn(COCCI)c(=O)[nH]c1=O`, the melting point was in the range of 112 to 115 °C.

The compound `O=[N+]([O-])c1ccccc1S(=O)(=O)NOCc1ccccc1` returned a melting point of 148 to 151 °C.

In turn, `CN(C)c1ccc(C(c2ccccc2)c2c(C(=O)O)[nH]c3ccccc23)cc1` (centres undefined) returned a melting point of 72 to 78 °C.

Regarding `O=C(Cn1nnc2ccccc21)Nc1ccc(-n2nc(C3CC3)cc2C2CC2)c(F)c1`, the melting point was 201 to 203 °C.

For `Clc1cc(CC(Cl)(Cl)Cl)cnc1Cl`, the melting point lay within 98 to 99 °C.

The compound `COc1ccc(CCCN)cc1Cl` yielded a melting point of 55 to 56 °C.

For the compound `Cc1cn(C2C=CC(CO)O2)c(=O)[nH]c1=S` (centres undefined), the melting point lay in the range of 117 to 118 °C.

Compound `Cn1c(COc2ccc(CC3SC(=O)N(C(c4ccccc4)(c4ccccc4)c4ccccc4)C3=O)cc2)cc2ccccc21` (centres undefined) had a melting point of 134 to 136 °C.

Compound `CCOC(=O)C1=CC(=O)C2(C(=O)c3ccccc3)OC2O1` (centres undefined) registered a melting point of 96 to 98 °C.

Consider `O=C([C@@H]1C[C@@H]2CCCC[C@@H]2N1)N1CCCC1`, for which the melting point came to 83 °C.

Compound `Cc1ccc2c(NCc3ccc(NC(=O)C4CCN(Cc5ccccc5)CC4)cc3)nc(N(C)C)nc2c1` yielded a melting point of 100 °C.

`CC(O)(C(=O)Nc1ccc(S(=O)(=O)c2ccccc2)cc1[N+](=O)[O-])C(F)(F)F` (centres undefined) showed a melting point of 191 to 192 °C.

The compound `CCOC(=O)C1(C(=O)OCC)CCC2(c3cc(OC)c(OC)cc3CCN2C(=O)CC)C(C2c3cc(OC)c(OC)cc3CCN2CC)C1` (centres undefined) had a melting point of 138 °C.

Compound `CC(c1oc2ccccc2c(=O)c1-c1ccccc1)n1nc(-c2cccc(O)c2)c2c(N)ncnc21` (centres undefined) gave a melting point of 212 to 216 °C.

In turn, `COC1=C(OC)C(=O)c2c(NC(C)=O)cccc2C1=O` came in with a melting point of 162 to 163 °C.

`O=Cc1cc([N+](=O)[O-])ccc1OC/C=C/CCl`: the melting point fell in the range of 65 to 66 °C.

Compound `COC(=O)c1cc2cc(OCCCl)ccc2s1` yielded a melting point of 116 to 117 °C.

As to `COC(=O)C(Cc1ccc(O)c(O)c1)NC(=O)OC(C)(C)C` (centres undefined), the melting point is 132 to 135 °C.

Turning to `N#CCCCN(Cc1ccccc1)Cc1ccccc1`, the melting point was 45 to 46 °C.

As for `O=C(CC1CC(OC(=O)c2ccccc2)CCC1=O)c1ccccc1` (centres undefined), the melting point was 107 to 108 °C.

The compound `CCc1c(N)c(C(N)=O)nn1C1CN(CC)C1` registered a melting point of 155 to 157 °C.

Take `CCn1nc(C(F)(F)F)cc1NC(=O)C1C(C)=CC=CC1(C(N)=O)C(C)C` (centres undefined): the melting point lay in the range of 223 to 226 °C.

On to `CN1C(=O)CC[C@]2(C)c3ccc(C#Cc4ccccc4)cc3CC[C@@H]12`, for which the melting point lay within 205 to 208 °C.

In turn, `CNC(=O)c1cccc(F)c1Nc1nc(Nc2ccc3c(c2)NC(=O)C(N2CCOCC2)CC3)ncc1Cl` (centres undefined) came in with a melting point of 270 to 271 °C.
